From patent US20100197599A1, “USE OF A PEPTIDE AS A THERAPEUTIC AGENT” (priority 2007, published 2010)
No end group written: not given here.

Assays:
[1] = test system: HIV-1IIIB; test: HIV-1 antiviral assay in CEM-SS cells (MTS readout); settings: positive controls
[2] = test system: HCMV strain AD169; test: HCMV plaque formation assay in MRC-5 cells; settings: for inhibition of HCMV plaque formation as compared to the virus control experiment: 10 micrograms per ml, 7-10 days
[3] = test system: Interleukin-2 (IL-2); test: Th1/Th2 cytokine profiling assay, IL-2; settings: murine spleen cells, 10 micrograms per ml
From the text: (§1) The Balb/c mice (originated in 1923, it is a popular strain and is used in many different research disciplines. Also classified as an inbred from the production of 20 or more successive brother-sister matings, the Balb/c mouse is albino and small in size) were immunized on Days 1, 15, and 29 with Ovalbumin (Ovalbumin is the main protein found in egg white, commonly used to stimulate an immunological reaction in test animals) in PBS (5 micrograms/injection). On day 50, spleens of the mice were harvested (3 weeks after last boost with Ovalbumin). […] Thereafter, additional Ovalbumin was added to the cells at 10 micrograms/ml for in vitro restimulation of the cells. 72 hours later, cell supernatants were harvested and assayed using the Becton Dickinson Mouse Th1/Th2 Cytokine CBA Kit. This kit can be used to measure Interleukin-2 (IL-2), Interleukin-4 (IL-4), Interleukin-5 (IL-5), Interferon-γ (IFN-γ), and Tumor Necrosis Factor-α (TNF-α) protein levels in a single sample. The kit performance has been optimized for analysis of physiologically relevant concentrations (μg/ml levels) of specific cytokine proteins in tissue culture supernatants and serum samples.

[4] = test system: HUVEC; test: Endothelial tube formation assay; assay type: cell-based, human; settings: 10 micrograms per ml, 20 hours
From the text: Positive control was vehicle only.

[5] = test system: Primary Human endothelial cells (HUVEC); test: Endothelial cell migration assay; assay type: cell-based; settings: 10 micrograms per ml, 22 hours
Description: Thereafter, designated concentration of testing peptides—10 micrograms per ml—was added in duplicate wells.

[6] = test system: Interleukin-5 (IL-5); test: Th1/Th2 cytokine profiling assay, IL-5; settings: murine spleen cells, 10 micrograms per ml
From the text: as §1

[7] = test system: Tumor Necrosis Factor-α (TNF-α); test: Th1/Th2 cytokine profiling assay, TNF-α; settings: murine spleen cells, 10 micrograms per ml; for change of the production of TNF-alpha: Ovalbumin restimulation, 72 hours
From the text: (§2) The Balb/c mice (originated in 1923, it is a popular strain and is used in many different research disciplines. Also classified as an inbred from the production of 20 or more successive brother-sister matings, the Balb/c mouse is albino and small in size) were immunized on Days 1, 15, and 29 with Ovalbumin (Ovalbumin is the main protein found in egg white, commonly used to stimulate an immunological reaction in test animals) in PBS (5 micrograms/injection). On day 50, spleens of the mice were harvested (3 weeks after last boost with Ovalbumin). […] Thereafter, additional Ovalbumin was added to the cells at 10 micrograms/ml for in vitro restimulation of the cells. 72 hours later, cell supernatants were harvested and assayed using the Becton Dickinson Mouse Th1/Th2 Cytokine CBA Kit. This kit can be used to measure Interleukin-2 (IL-2), Interleukin-4 (IL-4), Interleukin-5 (IL-5), Interferon-γ (IFN-γ), and Tumor Necrosis Factor-α (TNF-α) protein levels in a single sample.

[8] = test system: hepatitis B virus (HBV) ayw strain; test: HBV assay in HepG2-2.2.15 cells (secreted HBV DNA, TaqMan PCR); assay type: cell-based; settings: HepG2-2.2.15 liver cells, 10 micrograms per ml, six days
[9] = test system: Interferon-γ (IFN-γ); test: Th1/Th2 cytokine profiling assay, IFN-γ; settings: murine spleen cells, 10 micrograms per ml; for induction of the production of IFN-γ: Ovalbumin restimulation, 72 hours
From the text: as §2

[10] = test system: Human A549 cells; test: Apoptosis prevention assay (C2 ceramide, Annexin-5); assay type: cell-based; settings: 10 micrograms per ml pretreatment 30 min
[11] = test system: Interleukin-4 (IL-4); test: Th1/Th2 cytokine profiling assay, IL-4; settings: murine spleen cells, 10 micrograms per ml
From the text: as §1

[12] = test system: RAW 264.7 cells; test: Phagocytosis assay (Fluorescein-labeled Escherichia coli, flow cytometry); assay type: cell-based, Mouse; settings: 10 micrograms per ml, Fluorescein-labeled E. coli
Description: RAW 264.7 (Mouse leukaemic monocyte macrophage cell line) cells were obtained from ATCC and grown in RPMI 1640 medium containing 10% FBS. […] After the cells were incubated for additional 60 min at 37° C. and allowed to ingest the Fluorescein-labeled Escherichia coli bacteria, cells were fixed with 1% paraformaldehyde. The samples were then analyzed by flow cytometry to determine the amount of phagocytosis as a function of brightness (the greater the phagocytic activity, the more fluorescence in the macrophage population). Data are reported as % positive and the mean fluorescence intensity (MFI) of positively stained cells.

[13] = Ovalbumin restimulation, 72 hours

| Compound | antiviral activity of positive control compounds [1] | IL-2 spleen cells (% of control) [3] | IL-5 spleen cells; TH2 response (% of control) [6] | TNF-a spleen cells; TH1 response (% of control) [7] | change of the production of TNF-alpha [7] | inhibition of HBV replication as compared to the virus control infection [8] | IFNγ spleen cells; TH1 response (% of control) [9] | induction of the production of IFN-γ [9] [%] | reduction of the ceramide-induced apoptosis on human lung cells [10] [%] | inhibition of HCMV plaque formation as compared to the virus control experiment [2] [%] | IL-4 spleen cells; TH2 response (% of control) [11] | induction of phagocytosis as compared to the control experiment [12] [%] | also measured |
| --- | --- | --- | --- | --- | --- | --- | --- | --- | --- | --- | --- | --- | --- |
| Cc1cn([C@H]2C[C@H](N=[N+]=[N-])[C@@H](CO)O2)c(=O)[nH]c1=O [AZT] | expected levels of antiviral activity | – | – | – | – | – | – | – | – | – | – | – | – |
| Nc1nc(O)c2ncn(COC(CO)CO)c2n1 [Ganciclovir, reference compound] | – | – | – | – | – | – | – | – | – | – | – | – | antiviral activity of positive control compound ([2]; HCMV AD169, positive control): expected levels of antiviral activity |
| CC(C)(C)NC(=O)[C@@H]1CN(Cc2cccnc2)CCN1C[C@@H](O)C[C@@H](Cc1ccccc1)C(=O)N[C@H]1c2ccccc2C[C@H]1O [indinavir] | expected levels of antiviral activity | – | – | – | – | – | – | – | – | – | – | – | – |
| Met-Ala-Pro-Arg-Gly-Phe-Ser-Cys-Leu-Leu-Leu-Leu-Thr-Ser-Glu-Ile-Asp-Leu-Pro-Val-Lys-Arg-Arg-Ala-OH (MAPRGFSCLLLLTSEIDLPVKRRA-OH) [peptide 1] | – | 50.6 % of control | 63.5 % of control | 104.2 % of control | did not significantly change | 3.9% | 122.3 % of control | 22.3 | 10.7 | 3.2 | 75.1 % of control | 94.3 | decrease of the production of IL-2 [3, 13]: 49.4%; induction of the tube formation of human endothelial cells [4]: 23%; inhibition of the migration of human endothelial cells [5]: 3%; decrease of the production of IL-5 [6, 13]: 36.5%; change of the production of IL-4 [11, 13]: did not significantly change |
| Tyr-Gly-Gly-Phe-Leu-Arg-Lys-Tyr-Pro-Lys-OH (YGGFLRKYPK-OH) [peptide 2] | – | 141.5 % of control | 67.5 % of control | 101.0 % of control | did not significantly change | no effect | 130.3 % of control | 30.3 | 17.9 | 6.9 | 170.6 % of control | 54.3 | induction of the production of IL-2 [3, 13]: 41.5%; inhibition of the tube formation of human endothelial cells [4]: 5%; induction of the migration of human endothelial cells [5]: 11%; change of the production of IL-5 [6, 13]: did not significantly change; induction of the production of IL-4 [11, 13]: 70.6% |
